Reference: article PMC8347709 (International Journal of Molecular Sciences, 2021)

Assays:
[1] = LogD7.4 by shake-flask method; format: physicochemical; settings: n-octanol/phosphate-buffered saline, n-octanol/PBS pH 7.4, room temperature
Method: The measurement was performed twice in triplicate.

[2] = stability of the formulated product; format: physicochemical; settings: in saline, within 24 h at room temperature
Method: The purification of the product was performed by semipreparative HPLC (Figure 3), followed by trapping on a Sep-Pack C18-light cartridge and elution with EtOH. For biological experiments, the solvent was evaporated under a stream of nitrogen at 70 °C until a volume of about 20–30 µL remained. The product was formulated by using 280 µL saline (0.9% aqueous NaCl). The total synthesis time was about 70 min. […] A logD7.4 of 3.15 ± 0.25 was determined by the shake flask method, which is in accordance with the calculated cLogP of 3.0 (ChemDraw Professional 19.0).

[3] = biological target: T1, CB2R expression in the spleen (Rattus norvegicus, UniProt Q9QZN9); assay: dynamic PET/MR of spleen uptake in healthy rats; format: in vivo, Wistar rats; settings: single blocking experiment, GW405833 1.5 mg/kg i.v. 10 min prior tracer
T1 construct: from tissue; host or cells: spleen of living male Wistar Hun rats (in vivo PET)
T1 sequence (Q9QZN9 1-360): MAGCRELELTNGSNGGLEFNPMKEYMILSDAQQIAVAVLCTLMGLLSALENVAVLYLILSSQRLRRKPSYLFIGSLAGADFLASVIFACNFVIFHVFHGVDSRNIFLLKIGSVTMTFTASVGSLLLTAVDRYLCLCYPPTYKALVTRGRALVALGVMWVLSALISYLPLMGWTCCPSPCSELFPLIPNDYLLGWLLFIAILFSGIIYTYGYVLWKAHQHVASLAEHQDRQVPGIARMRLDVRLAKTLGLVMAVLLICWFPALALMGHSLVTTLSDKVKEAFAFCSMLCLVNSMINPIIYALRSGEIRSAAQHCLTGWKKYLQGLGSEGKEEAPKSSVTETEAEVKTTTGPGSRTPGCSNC
Text: For the uptake studies into the spleen three male Wistar Hun rats (Janvier Laboratories, Le Genest Saint Isle, France) weighing 268 ± 56 g were used. For the uptake studies into the brain, five female Wistar rats weighing 263 ± 13 g carrying the stereotactically injected AAV 2/7-CaMKII0.4-intron-hCB2R D80N (right striatum) and AAV2/7-CaMKII0.4-intron-3flag-eGFP (contralateral, left striatum). Animals were initially anaesthetised with 5% isoflurane and placed on a thermostatically heated animal bed where anaesthesia was maintained with 2% isoflurane in 60% oxygen/38% room air. […] List-mode PET data were binned as a series of attenuation-corrected sinogram frames (12 × 10 s, 6 × 30 s, 5 × 60 s and 10 × 300 s) and were reconstructed by ordered subset expectation maximisation (OSEM3D) with four iterations, six subsets and a voxel size of 0.4 mm^3 (Nucline v2.01, Mediso, Hungary). […] Non-parametrical analyses of achieved time-activity curves (TACs) were performed with Microsoft Excel to determine the time to peak, the TAC peak value and the area-under-the-zero-momentum curve (AUC):(1) AUC0−tx=∫0txcradioactivity × dt where c (radioactivity) is expressed as a standardised uptake value normalised to the bodyweight in g (SUV), the area-under-first-momentum curve (AUMC):(2) AUMC0−tx=∫0txt × cradioactivity × dt and the mean residence time (MRT):(3) MRT=AUMC0−tx/AUC0−tx […]

hCB2R(D80N) = biological target: T2, hCB2R(D80N) (Homo sapiens, UniProt P34972, D80N); assay: PET in rat model with local overexpression of hCB2R(D80N) in the right striatum; format: in vivo; set-up: reduction of the AUC20–60min by displacement: concentration or dose not given beside the values; settings: for time to peak: TAC; for reduction of the AUC20–60min by displacement: GW405833 i.v. at 20 min p.i.; for change of AUC40–60min by displacement versus vehicle: GW405833 5 mg/kg i.v. 20 min after tracer
T2 construct: expressed in transfected cells; host or cells: rat striatal cells transduced in vivo with AAV2/7-CaMKII0.4-intron-hCB2R D80N
T2 sequence (P34972 whole entry D80N): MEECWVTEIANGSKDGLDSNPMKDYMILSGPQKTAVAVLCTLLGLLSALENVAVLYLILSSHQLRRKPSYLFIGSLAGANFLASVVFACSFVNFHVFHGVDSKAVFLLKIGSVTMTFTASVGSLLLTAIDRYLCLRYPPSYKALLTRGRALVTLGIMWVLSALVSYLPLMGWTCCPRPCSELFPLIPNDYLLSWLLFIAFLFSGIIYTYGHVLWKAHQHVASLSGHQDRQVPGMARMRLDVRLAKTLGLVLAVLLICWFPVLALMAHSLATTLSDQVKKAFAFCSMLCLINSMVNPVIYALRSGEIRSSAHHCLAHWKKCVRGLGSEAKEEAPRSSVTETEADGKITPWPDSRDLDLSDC
Text: For the uptake studies into the spleen three male Wistar Hun rats (Janvier Laboratories, Le Genest Saint Isle, France) weighing 268 ± 56 g were used. For the uptake studies into the brain, five female Wistar rats weighing 263 ± 13 g carrying the stereotactically injected AAV 2/7-CaMKII0.4-intron-hCB2R D80N (right striatum) and AAV2/7-CaMKII0.4-intron-3flag-eGFP (contralateral, left striatum). Animals were initially anaesthetised with 5% isoflurane and placed on a thermostatically heated animal bed where anaesthesia was maintained with 2% isoflurane in 60% oxygen/38% room air. […] List-mode PET data were binned as a series of attenuation-corrected sinogram frames (12 × 10 s, 6 × 30 s, 5 × 60 s and 10 × 300 s) and were reconstructed by ordered subset expectation maximisation (OSEM3D) with four iterations, six subsets and a voxel size of 0.4 mm^3 (Nucline v2.01, Mediso, Hungary). The analysis of reconstructed datasets was performed with PMOD software (v4.103, PMOD Technologies LLC, Zurich, Switzerland). Non-parametrical analyses of achieved time-activity curves (TACs) were performed with Microsoft Excel to determine the time to peak, the TAC peak value and the area-under-the-zero-momentum curve (AUC):(1) AUC0−tx=∫0txcradioactivity × dt where c (radioactivity) is expressed as a standardised uptake value normalised to the bodyweight in g (SUV), the area-under-first-momentum curve (AUMC):(2) AUMC0−tx=∫0txt × cradioactivity × dt and the mean residence time (MRT):(3) MRT=AUMC0−tx/AUC0−tx

[4] = hCB2R D80N-to-cerebellum, vehicle (10 min prior tracer), n = 3
[5] = hCB2R D80N-to-contralateral, vehicle (10 min prior tracer), n = 3
[6] = same rat model, comparator data ref 68

In the case of `C[C@H]1CC[C@@H](NC(=O)c2cc3cccnc3n(CCCC[18F])c2=O)CC1` [[^18F]LU14], the logD [1] is reported as 3.15 ± 0.25, the “decomposition of the formulated product” value [2] is reported as “No decomposition” and the “AUC0–60min in the spleen, blocking versus control” value [3] is reported as “comparable”. It also gave a time to peak (hCB2R(D80N); cerebellum) of 1.6 ± 1.4 min, a time to peak (hCB2R(D80N); contralateral region) of 3.8 ± 1.6 min and a time to peak (hCB2R(D80N); hCB2R(D80N) right striatum, rats, i.v., n = 3) of 7.4 ± 2.8 min. For the same compound, the AUC (hCB2R(D80N); cerebellum) was 41.1 ± 5.6 SUV × min, the AUMC (hCB2R(D80N); cerebellum) was 819 ± 132 SUV × min^2 and the MRT (hCB2R(D80N); cerebellum) was 19.9 ± 1.2 min. For the same compound, the TAC peak value (hCB2R(D80N); cerebellum) was 2.7 ± 0.0 SUV, the “reduction of the AUC20–60min by displacement” value (hCB2R(D80N); compared to the cerebellum) was 76% and the “reduction of the AUC20–60min by displacement” value (hCB2R(D80N); compared to the contralateral region) was 73%. The AUC (hCB2R(D80N); contralateral region) was 42.6 ± 6.8 SUV × min, the AUMC (hCB2R(D80N); contralateral region) was 854 ± 165 SUV × min^2 and the MRT (hCB2R(D80N); contralateral region) was 20.0 ± 1.1 min. For the same compound, the TAC peak value (hCB2R(D80N); contralateral region) was 2.2 ± 0.4 SUV, the “change of AUC40–60min by displacement versus vehicle” value (hCB2R(D80N); hCB2R D80N-to-cerebellum) was −76.3% and the “AUC40–60min (CI95%)” value (hCB2R(D80N); hCB2R D80N-to-cerebellum, displacement by GW405833 5 mg/kg i.v. 20 min after tracer, n = 2) was 51 (42 to 60) SUVr × min. For the same compound, the “AUC0–20min (CI95%)” value (hCB2R(D80N); hCB2R D80N-to-cerebellum, displacement group (GW405833 5 mg/kg i.v. 20 min after tracer), n = 2) was 49 (40 to 59) SUVr × min, the “AUC0–20min (CI95%)” value (hCB2R(D80N); [4]) was 44 (39 to 48) SUVr × min and the “AUC40–60min (CI95%)” value (hCB2R(D80N); [4]) was 215 (190 to 241) SUVr × min. For the same compound, the “change of AUC40–60min by displacement versus vehicle” value (hCB2R(D80N); hCB2R D80N-to-contralateral) was −73.4%, the “AUC40–60min (CI95%)” value (hCB2R(D80N); hCB2R D80N-to-contralateral, displacement by GW405833 5 mg/kg i.v. 20 min after tracer, n = 2) was 56 (50 to 62) SUVr × min and the “AUC0–20min (CI95%)” value (hCB2R(D80N); hCB2R D80N-to-contralateral, displacement group (GW405833 5 mg/kg i.v. 20 min after tracer), n = 2) was 48 (41 to 54) SUVr × min. The “AUC0–20min (CI95%)” value (hCB2R(D80N); [5]) was 40 (37 to 42) SUVr × min, the “AUC40–60min (CI95%)” value (hCB2R(D80N); [5]) was 210 (190 to 231) SUVr × min and the AUC (hCB2R(D80N); hCB2R(D80N) right striatum) was 155 ± 28 SUV × min. For the same compound, the AUMC (hCB2R(D80N); hCB2R(D80N) right striatum) was 4349 ± 701 SUV × min^2, the MRT (hCB2R(D80N); hCB2R(D80N) right striatum) was 28.0 ± 0.4 min and the TAC peak value (hCB2R(D80N); hCB2R(D80N) right striatum) was 3.3 ± 0.6 SUV. For the same compound, the “uptake in the brain region with CB2R overexpression compared to [11C]NE40” value (hCB2R(D80N); [6]) was “about two-fold” and the “uptake in the brain region with CB2R overexpression compared to [18F]MA3” value (hCB2R(D80N); [6]) was “about five-fold”.
